Measured values published in patent US9351980B2, “Di-aspirin derivatives” (The University of Wolverhampton, priority 2010, dated 2016).

What was measured:
[1] = system: MAC13 tumour; assay: Tumour volume in MAC 13 tumour bearing mice; format: in vivo; settings: MAC13 tumour bearing NMRI mice, 1 mg/kg dissolved in PBS (FIG. 7)
Protocol: NMRI mice were treated with MAC13 cells (5×10^6) sub cut in their flanks (Hussey H J, Bibby […]; British J. of Cancer, 73, 1187-1192, 1996), were treated with example compounds. Once the tumour was established the tumour was dissected and small fragments re-transplanted into more mice. […] The mice were monitored daily-weight, food and water consumption and tumour size was recorded using calipers. The experiment ended when the control mouse tumours started to ulcerate.

[2] = human subjects given analgesic doses of aspirin; cited from earlier work
[3] = system: colorectal cells; settings: previously reported; cited from earlier work
[4] = system: SW480 colon carcinoma cell line, HCT-116 colon cancer cell line, MDA-231MB breast cancer cell line; assay: MTT titration assay (cell viability, 24 hours) on colon versus breast cancer cell lines; format: cell-based
Protocol: In the examples, assays mentioned are standard cytotoxicity assays and cell cultures used are prepared under standard conditions. The MTT assay referred to is MTT [3-(4,5-Dimethylthiazol-2-yl)-2,5-diphenyltetrazolium-bromide] assay (Mosmann T; J Immunol Methods 65: 55-63, 1983).
In FIG. 2, the in vitro toxicity of BCS, compound 508 of table 1, was investigated in further detail by titration against the SW480 colon carcinoma cell line and the DNA mismatch repair deficient HCT-116 colon cancer cell line and the MDA-231MB breast cancer cell line again utilising the MTT assay as described previously. The concentration-effect relationship for the three different cells lines is given in FIG. 2 (error bars indicate mean+/−S.D.). All experiments were performed in triplicate. For clarity, carrier molecule (DMSO) toxicity of the equivalent concentration utilised is also shown.

[5] = system: SW480 cell line; assay: MTT in vitro cytotoxicity assay on SW480 cells; format: cell-based
Protocol: The MTT assay was utilised with a 24 hour incubation period of cell exposure to the compound. […] Experiments were carried out in triplicate; error bars indicate standard deviation.
The carrier molecule utilised (DMSO) in these experiments to prepare stock solutions was buffered with Tris-HCl buffer pH8.0 (0.5M) to mitigate against any pH changes caused by the addition of compounds to cell culture medium. All data shown were normalised to cells exposed only to buffered carrier molecule.
The result shown is the average of three independent experiments (error bars indicate mean+/−SEM). For comparative purposes, compound toxicity is shown alongside the equivalent concentration of salicylic acid (SA) and aspirin (as tested using the MTT assay with a 72 hour incubation of SW480 cells with compound). The carrier molecule utilised in these experiments was DMSO (dimethyl sulphoxide); all data shown were normalised to cells exposed only to carrier molecule.

Compound: O=C(/C=C/C(=O)Oc1ccccc1C(=O)O)Oc1ccccc1C(=O)O [Compound 517, fumaroyldiaspirin]
- tumour growth [1]: decrease in tumour growth

Compound: CC(=O)Oc1ccccc1C(=O)O [Aspirin, acetylsalicylic acid]
- salicylate levels achievable in serum [2]: > 1 mM
- toxicity to colorectal cells in vitro [3]: exhibit toxicity

Compound: O=C(CCC(=O)Oc1ccccc1C(=O)O)Oc1ccccc1C(=O)O [Compound 508, bis(2-carboxyphenyl) succinate]
- tumour growth [1]: decrease in tumour growth
- specific toxicity to colorectal cancer cells ([4]; MTT titration, 24 hours, SW480, HCT-116 versus MDA-231MB): specifically toxic to colorectal cancer cells
- selectivity for SW480 compared with MDA-231-MB cells ([4]; cell viability assay, colon carcinoma versus breast cancer-derived cell line): significantly more toxic to SW480 colorectal cancer cells than to MDA-231-MB cells
- toxicity in comparison to aspirin ([5]; MTT assay, equivalent concentration of aspirin (FIG. 3, 48 hour incubation)): more toxic in comparison to aspirin
- specificity against the cell line derived from a colon cancer ([5]; SW480 versus MCF-7 and U373MG (FIG. 1), MTT): retains a degree of specificity
